The structures appear in SMILES notation. Where only a bound is given, the exact number is not on record here.

The target in one assay is T1, CD38 cyclase (Homo sapiens, UniProt P28907).
T1 sequence (P28907 1-300): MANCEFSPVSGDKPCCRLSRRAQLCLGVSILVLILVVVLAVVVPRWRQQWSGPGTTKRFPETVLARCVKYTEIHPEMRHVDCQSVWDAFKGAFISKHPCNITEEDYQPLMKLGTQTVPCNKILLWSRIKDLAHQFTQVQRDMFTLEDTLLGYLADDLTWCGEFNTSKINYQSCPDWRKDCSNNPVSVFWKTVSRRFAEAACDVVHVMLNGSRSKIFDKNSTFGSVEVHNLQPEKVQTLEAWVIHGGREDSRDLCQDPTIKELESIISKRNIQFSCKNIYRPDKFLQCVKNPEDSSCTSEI
Nature of the assay: CD38 cyclase activity, fluorometric assay with NGD+ as substrate. The format is biochemical. The following applies: for remaining activity at 50 µM: read-out: % cyclase activity remaining (50 μM).

In a further assay the test system is PBMCs. As to the kind of experiment: Cytokine analysis. The format is cell-based. The following applies: 1.0 μM, 48 hours, activated PBMCs from 3 donors.
For a further assay, the target named is T2, CD38 hydrolase (Homo sapiens, UniProt P28907).
T2 sequence (P28907 1-300): T1 sequence (P28907 1-300)
As to the kind of experiment: CD38 hydrolase activity, fluorometric assay with ε-NAD+ as substrate. The class given is biochemical. The conditions noted are these: hydrolase versus cyclase screen.

In the case of `O=C1NC(=S)S/C1=C\c1ccc(-c2cccc(C(F)(F)F)c2)o1` [Compound 35], at CD38 cyclase, the IC50 was over 100 µM and the remaining activity at 50 µM was 81.7 ± 9%.
For `Cc1ccc(-c2ccc(/C=C3\SC(=O)NC3=O)cc2)cc1` [Compound 37] the same measures were over 100 µM and 84.5 ± 2.2%.
For the molecule `O=C1NC(=S)S/C1=C\c1ccc(C(F)(F)F)cc1` [Compound 23], the “increase in IFNγ (in words)” value with PBMCs is “more effective than 78c”. Also, on CD38 cyclase, the IC50 came to 4.65 µM and the remaining activity at 50 µM was determined as 9.3 ± 0.8%.
Regarding `O=C1NC(=S)S/C1=C\c1ccc2c(c1)OCCO2` [Compound 28], on CD38 cyclase, the IC50 was over 100 µM and the remaining activity at 50 µM worked out at 93.9 ± 6.9%.
Turning to `O=C1NC(=S)S/C1=C\c1ccc(-c2ccccn2)cc1` [Compound 34], on CD38 cyclase, half-maximal inhibition (IC50) required 56 µM and the remaining activity at 50 µM was 66.3 ± 23.4%.
For `CS(=O)(=O)c1ccc(/C=C2\SC(=S)NC2=O)cc1` [Compound 21] the same measures were 11.5 µM and 22.1 ± 4%.
Consider `Cc1ccc(-c2ccc(/C=C3\SC(=S)NC3=O)cc2)cc1` [Compound 33], for which, on CD38 cyclase, the IC50 was 10 µM and the remaining activity at 50 µM stood at 39.4 ± 4.9%.
For `COc1cc(/C=C2\SC(=S)NC2=O)cc(OC)c1OC` [Compound 39] the same measures were 68.6 µM and 64.1 ± 7.2%.
For the molecule `O=C1NC(=S)S/C1=C\c1ccccc1C(F)(F)F` [Compound 41], on CD38 cyclase, the IC50 is over 100 µM and the remaining activity at 50 µM came out at 81.6 ± 2.4%.
With `O=C1NC(=S)S/C1=C\c1ccccc1OC(F)(F)F` [Compound 42], on CD38 cyclase, the IC50 is over 100 µM and the remaining activity at 50 µM was found to be 87.1 ± 3.4%.
The like results for `O=C1NC(=S)S/C1=C\c1ccc(Oc2ccccc2)cc1` [Compound 27] were, in that order, over 100 µM and 88.2 ± 0.6%.
The like results for `O=C1NC(=S)S/C1=C\c1ccc(OC(F)(F)F)cc1` [Compound 22] were, in that order, 4.81 µM and 21.7 ± 8.1%.
The like results for `COc1ccc(-c2ccc(/C=C3\SC(=S)N(C)C3=O)cc2)cc1` [Compound 24] were, in that order, over 100 µM and 90.1 ± 3.9%.
In the case of `O=C1NC(=S)S/C1=C\c1ccc(-c2ccc(C(F)(F)F)cc2)cc1` [Compound 32], the “increase in IFNγ (in words)” value in the assay with PBMCs is reported as “more effective than 78c”. In addition, at CD38 cyclase, the half-inhibitory concentration (IC50) was 3.15 µM and the remaining activity at 50 µM is 64.5 ± 4.2%.
For `COc1ccc2cc(/C=C3\SC(=S)NC3=O)ccc2c1` [Compound 36], at CD38 cyclase, the IC50 was over 100 µM and the remaining activity at 50 µM came out at 90 ± 5.4%.
The like results for `Cc1ccc(-c2cccc(/C=C3\SC(=S)NC3=O)c2)cc1` [Compound 29] were, in that order, over 100 µM and 98.6 ± 4.7%.
The like results for `Cc1ccc(-c2ccc(/C=C3\SC(=S)N(C)C3=O)cc2)cc1` [Compound 43] were, in that order, 48.2 µM and 29 ± 18.8%.
As for `O=C1NC(=S)S/C1=C\c1ccc(-c2ccccc2)cc1` [Compound 40], the remaining activity at 50 µM at CD38 cyclase amounted to 22.1 ± 14.3%.
Consider `O=C1NC(=S)S/C1=C\c1ccc2c(c1)-c1ccccc1C2` [Compound 31], for which, at CD38 cyclase, the IC50 is over 100 µM and the remaining activity at 50 µM stood at 96.3 ± 6.8%.
Take `O=C1NC(=S)S/C1=C\c1ccc2ncccc2c1` [Compound 25]: on CD38 cyclase, the IC50 worked out at 56 µM and the remaining activity at 50 µM turned out to be 68.3 ± 18.2%.
Consider `O=C1NC(=S)S/C1=C\c1ccc(OCc2ccccc2)cc1` [Compound 38], for which, at CD38 cyclase, the IC50 was over 100 µM and the remaining activity at 50 µM stood at 84.5 ± 8.5%.
For `COc1ccc(-c2ccc(/C=C3\SC(=S)NC3=O)cc2)cc1` [Compound 45] the same measures were 53.8 µM and 55.7 ± 2.3%.
The like results for `O=C1NC(=S)S/C1=C\c1cc2cc3c(cc2nc1Cl)OCO3` [Compound 30] were, in that order, 20.9 µM and 70.3 ± 40.7%.
Turning to `O=c1cc(-c2ccc(O)cc2)oc2cc(O)cc(O)c12` [apigenin], the “selectivity between hydrolase and cyclase activity (in words)” value at CD38 hydrolase is listed as “neither compound showed significant selectivity”.
As to `O=C1NC(=S)S/C1=C\c1ccc2oc3ccccc3c2c1` [Compound 26], on CD38 cyclase, the IC50 was over 100 µM and the remaining activity at 50 µM stood at 77.3 ± 22.4%.

Values taken from paper PMC9042253 (RSC Advances, 2021).
